Test results taken from patent US7799821B2, “Therapeutic compounds” (Allergan, Inc., priority 2004, dated 2010).
pEC50: −log10 of the molar value.

Columns and labels:
Type in all cases: cell-based
[1] = biological target: T1, hTP (Homo sapiens, UniProt P21731); assay: FLIPR calcium signal, hTP; settings: FLIPR Ca2+ signal, HEK-293(EBNA); read-out: FUNCTIONAL EC50 HTP
T1 construct: expressed in transfected cells; host or cells: HEK-293(EBNA)
T1 sequence (P21731 1-343): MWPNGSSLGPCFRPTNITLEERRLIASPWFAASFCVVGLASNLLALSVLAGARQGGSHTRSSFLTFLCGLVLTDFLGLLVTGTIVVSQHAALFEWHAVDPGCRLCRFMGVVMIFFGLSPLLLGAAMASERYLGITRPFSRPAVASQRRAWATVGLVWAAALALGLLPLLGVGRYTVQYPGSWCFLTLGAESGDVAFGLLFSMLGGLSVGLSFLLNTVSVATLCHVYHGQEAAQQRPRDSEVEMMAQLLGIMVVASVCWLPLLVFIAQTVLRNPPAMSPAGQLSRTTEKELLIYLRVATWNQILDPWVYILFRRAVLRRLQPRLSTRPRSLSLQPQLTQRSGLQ
Procedure: (§1) HEK-293(EBNA) cells, stably expressing one type or subtype of recombinant human prostaglandin receptors (prostaglandin receptors expressed: hDP/Gqs5; hEP1; hEP2/Gqs5; hEP3A/Gqi5; hEP4/Gqs5; hFP; hIP; hTP), were cultured in 100 mm culture dishes in high-glucose DMEM medium containing 10% fetal bovine serum, 2 mM 1-glutamine, 250 μg/ml geneticin (G418) and 200 μg/ml hygromycin B as selection markers, and 100 units/ml penicillin G, 100 μg/ml streptomycin and 0.25 μg/ml amphotericin B. • (b) Calcium Signal Studies on the FLIPR™
(§2) Cells were seeded at a density of 5×10^4 cells per well in Biocoat® Poly-D-lysine-coated black-wall, clear-bottom 96-well plates (Becton-Dickinson) and allowed to attach overnight in an incubator at 37° C. Cells were then washed two times with HBSS-HEPES buffer (Hanks Balanced Salt Solution without bicarbonate and phenol red, 20 mM HEPES, pH 7.4) using a Denley Cellwash plate washer (Labsystems). After 45 minutes of dye-loading in the dark, using the calcium-sensitive dye Fluo-4 AM at a final concentration of 2 μM, plates were washed four times with HBSS-HEPES buffer to remove excess dye leaving 100 μl in each well. Plates were re-equilibrated to 37° C. for a few minutes.
(§3) Cells were excited with an Argon laser at 488 nm, and emission was measured through a 510-570 nm bandwidth emission filter (FLIPR™, Molecular Devices, Sunnyvale, Calif.). Drug solution was added in a 50 μl volume to each well to give the desired final concentration. The peak increase in fluorescence intensity was recorded for each well. On each plate, four wells each served as negative (HBSS-HEPES buffer) and positive controls (standard agonists: BW245C (hDP); PGE2 (hEP1; hEP2/Gqs5; hEP3A/Gqi5; hEP4/Gqs5); PGF2α (hFP); carbacyclin (hIP); U-46619 (hTP), depending on receptor). The peak fluorescence change in each drug-containing well was then expressed relative to the controls.
(§4) Compounds were tested in a high-throughput (HTS) or concentration-response (CoRe) format. In the HTS format, forty-four compounds per plate were examined in duplicates at a concentration of 10^−5 M. To generate concentration-response curves, four compounds per plate were tested in duplicates in a concentration range between 10^−5 and 10^−11 M. The duplicate values were averaged. In either, HTS or CoRe format each compound was tested on at least 3 separate plates using cells from different passages to give an n≧3.

[2] = biological target: T2, hEP2/Gqs5 (Homo sapiens, UniProt P43116); assay: FLIPR calcium signal, hEP2; settings: FLIPR Ca2+ signal, HEK-293(EBNA); read-out: FUNCTIONAL EC50 HEP2
T2 construct: expressed in transfected cells; host or cells: HEK-293(EBNA)
Procedure: as §1, §2, §3, §4

[3] = biological target: T3, hDP/Gqs5 (Homo sapiens, UniProt Q13258); assay: FLIPR calcium signal, hDP; settings: FLIPR Ca2+ signal, HEK-293(EBNA); read-out: FUNCTIONAL EC50 HDP
T3 construct: expressed in transfected cells; host or cells: HEK-293(EBNA)
T3 sequence (Q13258 1-359): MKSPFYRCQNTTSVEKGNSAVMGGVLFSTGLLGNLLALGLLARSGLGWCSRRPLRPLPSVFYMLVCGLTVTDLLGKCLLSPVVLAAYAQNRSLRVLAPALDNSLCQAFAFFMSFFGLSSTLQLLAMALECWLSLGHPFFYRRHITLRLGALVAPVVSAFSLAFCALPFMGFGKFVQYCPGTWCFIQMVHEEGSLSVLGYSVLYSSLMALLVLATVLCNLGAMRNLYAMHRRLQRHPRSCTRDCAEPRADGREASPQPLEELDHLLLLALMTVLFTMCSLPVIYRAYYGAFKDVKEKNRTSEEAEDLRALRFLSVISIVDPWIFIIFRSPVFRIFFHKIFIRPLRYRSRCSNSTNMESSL
Procedure: as §1, §2, §3, §4

T2 sequence (P43116 whole entry): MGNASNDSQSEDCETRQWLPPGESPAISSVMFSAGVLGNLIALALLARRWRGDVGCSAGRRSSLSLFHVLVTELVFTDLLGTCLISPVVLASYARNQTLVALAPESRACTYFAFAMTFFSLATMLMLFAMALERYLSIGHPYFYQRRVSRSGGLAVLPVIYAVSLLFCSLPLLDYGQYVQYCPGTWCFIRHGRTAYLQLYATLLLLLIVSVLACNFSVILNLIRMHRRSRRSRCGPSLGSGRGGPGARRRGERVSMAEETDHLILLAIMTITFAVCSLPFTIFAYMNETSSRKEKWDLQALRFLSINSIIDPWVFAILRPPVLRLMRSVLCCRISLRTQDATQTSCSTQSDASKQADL

Row | SMILES | pEC50 [1] | pEC50 [2] | pEC50 [3]
1 | CCCC1(C(O)c2ccc([C@H]3[C@H](O)CC(=O)[C@@H]3C/C=C\CCCC(=O)OC)cc2)CCC1 (stereo partly shown) | < 5.00 |  | 
2 | COC(=O)CCC/C=C\C[C@H]1C(=O)C[C@@H](O)[C@@H]1c1ccc(C(C)(C)C)cc1 | < 5.00 | < 5.00 | 
3 | O=C(O)CCCCCC[C@@H]1[C@@H](c2ccc(CC3CCCCC3)cc2)[C@H](O)C[C@H]1Cl |  | 5.46 | < 5.00
4 | CCCC1(C(O)c2cccc(C3C(O)CC(=O)C3Cc3cccc(OCC(=O)O)c3)c2)CCC1 (stereo not shown) |  |  | < 5.00
5 | O=C(O)CCCCCC[C@H]1C(=O)C[C@@H](O)[C@@H]1c1ccc2c(c1)CCC2O (stereo partly shown) | < 5.00 |  | 
6 | O=C(O)CCC/C=C\C[C@@H]1[C@@H](c2ccc(C3(O)CCC3)cc2)[C@H](O)C[C@H]1Cl | < 5.00 | 6.29 | 
7 | COC(=O)CCCCCC[C@@H]1[C@@H](c2ccc(C3(O)CCC3)cc2)[C@H](O)C[C@H]1Cl | < 5.00 | < 5.00 | 
8 | O=C(O)CCCCCC[C@@H]1[C@@H](c2ccc(C3(O)CCC3)cc2)[C@H](O)C[C@H]1Cl | < 5.00 | 6.13 | 
